Biological target: mitochondrial respiratory chain complex I (Homo sapiens, UniProt O75251+O75306+P03886)
Experiment: spectrophotometric NADH:decylubiquinone oxidation in DU145 homogenate
Assay type: cell-based

Sequence of mitochondrial respiratory chain complex I (P03886 whole entry): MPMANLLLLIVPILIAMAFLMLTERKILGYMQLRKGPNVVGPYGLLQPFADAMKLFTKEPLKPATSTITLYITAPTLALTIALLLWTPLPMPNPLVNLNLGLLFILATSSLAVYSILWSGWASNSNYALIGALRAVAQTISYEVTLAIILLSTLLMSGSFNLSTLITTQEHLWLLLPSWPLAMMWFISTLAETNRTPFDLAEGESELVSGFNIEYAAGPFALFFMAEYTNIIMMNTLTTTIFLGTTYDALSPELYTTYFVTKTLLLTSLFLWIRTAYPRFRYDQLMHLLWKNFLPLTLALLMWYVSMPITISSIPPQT
Sequence of mitochondrial respiratory chain complex I (O75306 34-463): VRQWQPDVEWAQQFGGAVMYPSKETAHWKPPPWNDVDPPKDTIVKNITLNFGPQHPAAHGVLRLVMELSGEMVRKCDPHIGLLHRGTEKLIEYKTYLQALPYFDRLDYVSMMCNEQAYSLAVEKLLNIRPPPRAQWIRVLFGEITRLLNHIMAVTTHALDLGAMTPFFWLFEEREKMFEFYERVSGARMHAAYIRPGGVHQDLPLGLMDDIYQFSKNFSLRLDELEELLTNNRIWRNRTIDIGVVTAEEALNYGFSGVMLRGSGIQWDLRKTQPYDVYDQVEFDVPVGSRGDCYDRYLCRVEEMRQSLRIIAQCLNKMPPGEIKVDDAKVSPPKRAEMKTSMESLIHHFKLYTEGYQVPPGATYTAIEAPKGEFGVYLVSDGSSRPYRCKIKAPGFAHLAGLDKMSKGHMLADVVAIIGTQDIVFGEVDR
Sequence of mitochondrial respiratory chain complex I (O75251 39-213): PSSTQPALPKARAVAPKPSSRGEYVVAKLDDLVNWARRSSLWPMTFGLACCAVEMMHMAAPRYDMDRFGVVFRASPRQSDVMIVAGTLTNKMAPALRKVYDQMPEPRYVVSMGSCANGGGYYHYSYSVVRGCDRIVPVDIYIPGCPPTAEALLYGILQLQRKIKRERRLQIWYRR

## CCCCN1CCCC[C@H]1C(=O)Nc1c(C)cccc1C [levobupivacaine]
  Ki: 600 µM

Reference: publication PMC6019688 (Redox Biology, 2018)
